Test results as given in patent US20160318844A1, “PROSTACYCLIN COMPOUNDS, COMPOSITIONS AND METHODS OF USE THEREOF” (Insmed Incorporated, priority 2015, published 2016).
Read-outs that look alike come from different tables or passages of the source.

What was measured:
[1] = Treprostinil alkyl ester conversion to treprostinil in dog lung tissue homogenate; assay type: in vitro ADME; conditions: 37° C.
Procedure: (§1) Here, data were calculated based on fit of exponential increase to the maximum (experiments performed in duplicate). The results of this study are provided below in Table 2A and FIG. 37. […] In this experiment, treprostinil alkyl esters were incubated for 4 hours at a final concentration of 200 nM in 1 mL of tissue homogenate prepared in water and normalized to 10 mg/mL of protein.
(§2) C12-TR was incubated for 4 hours at a final concentration of 200 nM in 1 mL of tissue homogenate prepared in water and normalized to 10 mg/mL of protein. Both FIG. 37 experiments (eft and right graphs) were performed in duplicate and the lines represent nonlinear exponential regression assuming 1 phase decay. Table 2A. Rate of treprostinil alkyl ester conversion in the presence of rat, dog or monkey lung tissue homogenate.

[2] = Treprostinil alkyl ester conversion to treprostinil in monkey lung tissue homogenate; assay type: in vitro ADME; conditions: 37° C.
Procedure: as §1, §2

EP2 prostanoid receptor = target: T1, EP2 prostanoid receptor (Homo sapiens, UniProt P43116); assay: GloSensor cAMP assay in CHO-K1 cells co-transfected with the EP2 receptor; assay type: cell-based
T1 construct: host or cells: CHO-K1
From the text: cAMP is a second messenger involved in signal transduction of G-protein coupled receptors (GPCRs) acting through Gα-s and Gα-i proteins. Because the treprostinil receptor is a GPCR, the assay provides an indication of whether the respective prostacyclin compound (or metabolite thereof) binds its receptor and activates the GPCR cell signaling cascade. The GloSensorTM assay harnesses a genetically modified form of firefly luciferase into which a cAMP-binding protein moiety has been inserted. Upon binding of cAMP, a conformational change is induced leading to increased light output. The EP2 prostanoid receptor was cotransfected with the GioSensorm plasmid (Promega) into CHO-K cells as follows. CHO-K cells were harvested when the monoloayer was at 50-90% confluence. First, cells were washed with 5 mL PBS. […] The media was aspirated, and the cell pellet was resuspended in 10 mL of growth media. Cell number was determined using a hemacytometer. […] For small scale transfections of up to 20 wells, the pGLoSensor-22F cAMP plasmid (Promega, Cat #: E2301) (2 apg): […] Cat #: […] P2271) ratio was diluted to a final concentration of 12.6 ng/μL (total plasmid) in Opti-MEM I reduced-serum medium (Life Technologies, Cat #: 1985062). Next, 6 μL of FuGENE HD transfection reagent (Promega, Cat #: E2311) was added to 160 μL of diluted plasmid and mixed carefully by gentle pipetting. The complex was incubated at room temperature for 0 to 10 minutes, and then 8 μL of the complex was added per well of a 96 well white assay plate (Costar, Cat #: 3917) and gently mixed without disturbing the cell monolayer. […] Following incubation, cells were treated and analyzed. For larger scale transfections, the aforementioned steps were scaled up accordingly, and cells were frozen following the last incubation. In order to prepare frozen transfected CHO-K cells, the media was aspirated from culture flasks and cells were rinsed with 5 mL PBS. […] Cell number was determined using a hemacytometer. The media was aspirated, and the cell pellet was resuspended in freezing media (Millipore, cat #: S-002-SF) at 2.5×10^4 cells/vial. Transfected cells were incubated overnight at -80° C. before transfer to liquid nitrogen for long term storage. […] SH30071.03)). […] In preparation for cAMP measurement, the cells were equilibrated with the GloSensor cAMP reagent prior to treatment. For equilibration, the medium was carefully removed from the individual well. Next, 100 μL of equilibration medium ([…] of Glosensor Reagent stock solution (Promega, Cat #: E291), 10% FBS (Hydone, Cat #: SH30071.03) and 88% CO2 independent medium (Life Technologies, Cat #: 18045088)) was added per well of the 96-well plate, and added to the side of each well. The plate was then incubated for 2 hours at room temperature. A first pre-read measurement was taken using a microplate reader (MicroLumat Plus). Plates were incubated for an additional 10 minutes at room temperature, followed by a second pre-read measurement. […] Following treatment, each plate was read every 5 minutes for the duration of the assay using a microplate reader (MicroLumat Plus). In order to determine the fold change in cAMP relative to the control, the transfection efficiency was first determined by dividing the second pre-read measurement by the average of the corresponding pre-read measurements. Next, the normalized relative light units (RLUs) of the samples were determined by dividing the plate read measurement by the transfection efficiency. The fold change in cAMP relative to the control was then determined by dividing the normalized RLU of the samples by the normalized RLU of the control. The cAMP assay was validated using free treprostinil. […] Luminescence was then measured at room temperature. […] Nebulizer Aeroneb Pro (Aerogen) was used to nebulize treprostinil derivative compositions. Desired volume of the formulation (usually 3 mL) was loaded to the mesh head of the nebulizer. […]

NR8383 cells = assay: NR8383 cell proliferation assay; assay type: cell-based, rat; conditions: for Effect on cell proliferation, NR8383 Cells: detectable cell inhibition: Table 9, unformulated alkyl esters, (0.195 μM-25 μM), 72 hour incubation
Procedure: Rat alveolar NR8383 cells were harvested when the monolayer was 50-90% confluent (use passage 5-11). Because the NR8383 cells include both adherent and non-adherent cells, media was transferred to a 50 mL Falcon tube. To obtain the cells remaining in the flask, 2 mL of plain media was added, and the remaining cells were scraped out of the 75 cm^2 flask with a cell scraper and added to the 50 mL tube. […] SH30071.03)+1×Pen-Strep (Life Technologies, cat #: 15410-122)). Cell number was determined using a hemacytometer. […] Measurements and calculations were made as described above for the CHO-K1 cells. Rat alveolar NR8383 cells were challenged with the same treprostinil derivative compositions: […]

[3] = 4.5 hr incubation time, read-out: EC50 (μM) 4.5 hr
[4] = 6.0 hr incubation time, read-out: EC50 (μM) 6.0 hr
[5] = 8.0 hr incubation time, read-out: EC50 (μM) 8.0 hr
[6] = EC50 (μM) 0.5 hr, 0.5 hr incubation time
[7] = EC50 (μM) 1.0 hr, 1.0 hr incubation time
[8] = EC50 (μM) 2.0 hr, 2.0 hr incubation time
[9] = EC50 (μM) 3.0 hr, 3.0 hr incubation time
[10] = EC50 (μM) 4.0 hr, 4.0 hr incubation time
[11] = EC50 (μM) 5.0 hr, 5.0 hr incubation time
[12] = EC50 (μM) 7.0 hr, 7.0 hr incubation time

T1 sequence (P43116 whole entry): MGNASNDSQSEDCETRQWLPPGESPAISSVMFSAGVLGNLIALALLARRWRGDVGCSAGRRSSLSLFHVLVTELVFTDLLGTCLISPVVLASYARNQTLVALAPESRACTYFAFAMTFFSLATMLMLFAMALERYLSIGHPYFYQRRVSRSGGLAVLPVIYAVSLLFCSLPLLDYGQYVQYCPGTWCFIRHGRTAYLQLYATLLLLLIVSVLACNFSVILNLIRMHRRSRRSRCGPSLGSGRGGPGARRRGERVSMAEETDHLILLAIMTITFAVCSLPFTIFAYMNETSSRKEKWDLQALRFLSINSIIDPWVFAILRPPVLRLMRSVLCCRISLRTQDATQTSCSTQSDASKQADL

Row | Compound | Rate of treprostinil alkyl ester conversion [1] | Rate of treprostinil alkyl ester conversion [2] | EC50 (EP2 prostanoid receptor; [3]) | EC50 (EP2 prostanoid receptor; [4]) | EC50 (EP2 prostanoid receptor; [5]) | EC50 (EP2 prostanoid receptor; [6]) | EC50 (EP2 prostanoid receptor; [7]) | EC50 (EP2 prostanoid receptor; [8]) | EC50 (EP2 prostanoid receptor; [9]) | EC50 (EP2 prostanoid receptor; [10]) | EC50 (EP2 prostanoid receptor; [11]) | EC50 (EP2 prostanoid receptor; [12]) | Effect on cell proliferation, NR8383 Cells: detectable cell inhibition (NR8383 cells) | inhibition of NR8383 cell proliferation (NR8383 cells; unformulated alkyl esters, highest concentration, 72 hour)
1 | CCCCCCCCCCCCOC(=O)COc1cccc2c1C[C@H]1C[C@@H](O)[C@H](CC[C@@H](O)CCCCC)[C@H]1C2 [Compound C12-TR, dodecyl-treprostinil] | 2.2 nmOL/h * g of protein | 0.6 nmOL/h * g of protein | 3.17 µM | 3.25 µM | 2.9 µM | 4.98 µM | 5.35 µM | 4.54 µM | 4.07 µM | 3.13 µM | 2.94 µM | 3.17 µM | No detectable cell inhibition | –
2 | CCCCCCCCOC(=O)COc1cccc2c1C[C@H]1C[C@@H](O)[C@H](CC[C@@H](O)CCCCC)[C@H]1C2 [Compound C8-TR, treprostinil octyl ester] | 49.8 nmOL/h * g of protein | 17.3 nmOL/h * g of protein | 1.41 µM | 1.4 µM | 1.09 µM | 3.69 µM | 3.39 µM | 1.69 µM | 1.42 µM | 1.53 µM | 1.4 µM | 1.34 µM | Some detectable cell | showed some inhibition of cell proliferation
